Reference: patent publication US20040097432A1, “Method of reducing cholesterol” (ACCESS BUSINESS GROUP INTERNATIONAL LLC., priority 2002, published 2004)

System: HepG2 hepatocytes
Assay: Inhibition of cholesterol synthesis in HepG2 hepatocytes (secreted cholesterol and cholesteryl ester, AmplexRed)
Type: cell-based
Experimental: HepG2 hepatocytes were used as a model to study the inhibition of cholesterol synthesis according to the procedures described in Dashti, N., et al., J. Lipid Res. 28:423-436 (1987) and Mohammadi, A., et al., Arterioscler. Thromb. Vasc. Biol., […]:783-793 (1998). […] Amounts of secreted cholesterol and cholesteryl ester are measured from acetate fed hepatocyte culture media using a fluorescent indicator AmplexRed.
The same cholesterol inhibition model used in Example I was used to determine the cholesterol synthesis inhibition of theaflavins, including theaflavin and gallate esters of theaflavin.

Compound	inhibition at 50 µg/mL (Homo sapiens, 0.05 mg/ml theaflavin, acetate fed HepG2 culture media, FIG. 1, read-out: inhibitory effect (cholesterol synthesis/release)) [%]	dose specific response of hepatocytes compared to Lipotor (same weight basis (tablet weight, 6.7% actives), HepG2, FIG. 1)	cholesterol inhibition activity (contribution among materials tested) (HepG2, dose response FIG. 2, materials of Table I)
O=c1c(O)cc([C@H]2Oc3cc(O)cc(O)c3C[C@H]2O)cc2c([C@H]3Oc4cc(O)cc(O)c4C[C@H]3O)cc(O)c(O)c12 [theaflavin, Theaflavin]	~30	comparable or slightly better than Lipotor®	
O=C(O[C@@H]1Cc2c(O)cc(O)cc2O[C@@H]1c1cc(=O)c(O)c2c(O)c(O)cc([C@H]3Oc4cc(O)cc(O)c4C[C@H]3O)c2c1)c1cc(O)c(O)c(O)c1 [theaflavin-3-gallate]			provided much of the cholesterol inhibition activity
